Assay results published in patent US20080182882A1, “N-HYDROXYAMIDINOHETEROCYCLES AS MODULATORS OF INDOLEAMINE 2,3-DIOXYGENASE” (INCYTE CORPORATION, priority 2006, published 2008).

How the values were obtained:
[1] = biological target: T1, indoleamine 2,3-dioxygenase (IDO) in HeLa cells (Homo sapiens, UniProt P14902); assay: HeLa cell-based indoleamine 2,3-dioxygenase (IDO)/kynurenine assay; conditions: IFN-γ 50 ng/mL, 48 hours incubation, kynurenine at 480 nm
T1 construct: host or cells: HeLa cells, IFN-γ induced
T1 sequence (P14902 whole entry): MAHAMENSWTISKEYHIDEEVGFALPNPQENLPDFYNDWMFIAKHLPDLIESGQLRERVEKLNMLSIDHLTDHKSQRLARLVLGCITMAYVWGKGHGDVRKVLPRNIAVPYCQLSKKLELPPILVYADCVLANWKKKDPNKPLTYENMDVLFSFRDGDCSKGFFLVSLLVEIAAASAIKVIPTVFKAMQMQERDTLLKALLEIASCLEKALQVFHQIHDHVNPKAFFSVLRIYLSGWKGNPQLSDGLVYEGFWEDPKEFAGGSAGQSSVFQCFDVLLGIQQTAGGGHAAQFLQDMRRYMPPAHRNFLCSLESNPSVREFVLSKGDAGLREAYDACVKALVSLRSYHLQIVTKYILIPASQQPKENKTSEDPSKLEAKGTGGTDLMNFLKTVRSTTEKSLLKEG
Procedure: HeLa cells (#CCL-2) can be obtained from the American Type Tissue Culture Collection (ATCC, Manassas, Va.) and routinely maintained in minimum essential medium (eagle) with 2 mM L-glutamine and Earle's BSS adjusted to contain 1.5 g/L sodium bicarbonate, 0.1 mM non-essential amino acids, 1 mM sodium pyruvate and 10% fetal bovine serum (all from Invitrogen). Cells are kept at 37° C. in a humidified incubator supplied with 5% CO2. The assay is performed as follows: HeLa cells are seeded in a 96 well culture plate at a density of 5×10^3 per well and grown overnight. On the next day, IFN-γ (50 ng/mL final concentration) and serial dilutions of compounds (in total volume of 200 μL culture medium) are added into cells. After 48 hours of incubation, 140 μL of the supernatant per well is transferred to a new 96 well plate. 10 μL of 6.1 N trichloroacetic acid (#T0699, Sigma) is mixed into each well and incubated at 50° C. for 30 min to hydrolyze N-formylkynurenine produced by indoleamine 2,3-dioxygenase to kynurenine. […] The yellow color derived from Kynurenine is measured at 480 nm using a SPECTRAmax 250 microplate reader (Molecular Devices). […] The percent inhibition at individual concentrations is determined and the average values of duplicates are obtained. The data is analyzed by using nonlinear regression to generate IC50 values (Prism Graphpad). […]

[2] = biological target: T2, Human indoleamine 2,3-dioxygenasae (IDO) (Homo sapiens, UniProt P14902); assay: Human indoleamine 2,3-dioxygenase (IDO) enzyme assay; format: biochemical; conditions: 95 nM IDO, 2 mM D-Trp, pH 6.5, room temperature
T2 construct: His tag (N); made in house; host or cells: E. coli
T2 sequence (P14902 whole entry): as above
Procedure: Human indoleamine 2,3-dioxygenasae (IDO) with an N-terminal His tag was expressed in E. coli and purified to homogeneity. IDO catalyzes the oxidative cleavage of the pyrrole ring of the indole nucleus of tryptophan to yield N′-formylkynurenine. The assays were performed at room temperature as described in the literature using 95 nM IDO and 2 mM D-Trp in the presence of 20 mM ascorbate, 5 μM methylene blue and 0.2 mg/mL catalase in 50 mM potassium phosphate buffer (pH 6.5). The initial reaction rates were recorded by continuously following the absorbance increase at 321 nm due to the formation of N′-formlylkynurenine. See: Sono, M., Taniguchi, T., Watanabe, Y., and Hayaishi, O. (1980) J. Biol. Chem. 255, 1339-1345 Compound activity is provided in Table 2 below.

[3] = tested on: P815 tumor; conditions: pre-immunized immune-competent mice, IDO-expressing tumors (Uyttenhove, C., et al); cited from earlier work
[4] = tested on: LLC tumors; conditions: LLC tumors in C57B1/6 mice, versus placebo (Friberg, M., et al); cited from earlier work

Structure (SMILES): Cc1ccc(Cl)cc1CNC(=NO)c1nonc1CO [Example 1, N-(5-chloro-2-methylbenzyl)-N′-hydroxy-4-(hydroxymethyl)-1,2,5-oxadiazole-3-carboximidamide]
- IC50 [1]: < 500 nM
- IC50 [2]: < 1000 nM

Structure (SMILES): Cn1cc(C[C@H](N)C(=O)O)c2ccccc21 [Example 1-MT, 1-methyl-tryptophan]
- growth of tumors [3]: inhibited
- formation of tumors [4]: markedly delayed

Structure (SMILES): OCc1nonc1C(=NO)NCc1cc(Cl)ccc1Cl [Example 2]
- IC50 [2]: < 5000 nM

Structure (SMILES): OCc1nonc1C(=NO)NCc1cc(Br)ccc1F [Example 3]
- IC50 [1]: < 500 nM
- IC50 [2]: < 1000 nM

Structure (SMILES): Cc1ccc(C)c(CNC(=NO)c2nonc2CO)c1 [Example 4]
- IC50 [2]: < 5000 nM
